From patent publication US10206394B2, “Herbicidal compounds” (Syngenta Participations AG, priority 2014, dated 2019)
Like-named read-outs stand apart in the source and are kept apart here.

Assays:
Assay in all cases: Glasshouse assay for herbicidal activity (pre- and post-emergence), percentage phytotoxicity
Type in all cases: in vivo
[1] = test system: Avena fatua (AVEFA); settings: Avena fatua
Method: (§1) Test—Glasshouse Assay for Herbicidal Activity
(§2) Seeds of a variety of monocotyledonous and dicotyledonous test plants are sown in standard soil in pots. The plants are cultivated for one day (for pre-emergence (PRE)) or for about 12 days (for post-emergence (POST)) under controlled conditions in a glasshouse (warm climate species at 24/18° C., cool climate species at 20/16° C., both at day/night; 16 hours light; 65% humidity).
(§3) The test plants are then grown on, in a glasshouse (greenhouse) under controlled conditions (warm climate species at 24/18° C., cool climate species at 20/16° C., both at day/night; 16 hours light; 65% humidity) and are watered twice daily. 15 days after application of the test herbicide (15 DAA) (for post-emergence), and 20 days after application of the test herbicide (20 DAA) (for pre-emergence), the test plants are evaluated visually, and an assessed percentage phytotoxicity score is given for each herbicidal application on each plant species (with 100%=total damage to plant; 0%=no damage to plant).
(§4) The plant species tested are as follows: Alopecurus myosuroides (ALOMY), Avena fatua (AVEFA), Lolium perenne (LOLPE), Echinochloa crus-galli (ECHCG).

[2] = test system: Lolium perenne (LOLPE); settings: Lolium perenne
Method: as §1, §2, §3, §4

[3] = test system: Echinochloa crus-galli (ECHCG); settings: Echinochloa crus-galli
Method: as §1, §2, §3, §4

[4] = test system: Alopecurus myosuroides (ALOMY); settings: Alopecurus myosuroides
Method: as §1, §2, §3, §4

[5] = post-emergence, 360 h, 250 g/ha, post-emergence, 15 DAA, visual assessment (100%=total damage, 0%=no damage), read-out: Post-emergence herbicidal activity (percentage phytotoxicity) AVEFA POST
[6] = pre-emergence, 480 h, 250 g/ha, pre-emergence, 20 DAA, visual assessment (100%=total damage, 0%=no damage), read-out: Pre-emergence herbicidal activity (percentage phytotoxicity) AVEFA PRE
[7] = post-emergence, 360 h, 250 g/ha, post-emergence, 15 DAA, visual assessment (100%=total damage, 0%=no damage), read-out: Post-emergence herbicidal activity (percentage phytotoxicity) LOLPE POST
[8] = pre-emergence, 480 h, 250 g/ha, pre-emergence, 20 DAA, visual assessment (100%=total damage, 0%=no damage), read-out: Pre-emergence herbicidal activity (percentage phytotoxicity) LOLPE PRE
[9] = post-emergence, 360 h, 250 g/ha, post-emergence, 15 DAA, visual assessment (100%=total damage, 0%=no damage), read-out: Post-emergence herbicidal activity (percentage phytotoxicity) ECHCG POST
[10] = pre-emergence, 480 h, 250 g/ha, pre-emergence, 20 DAA, visual assessment (100%=total damage, 0%=no damage), read-out: Pre-emergence herbicidal activity (percentage phytotoxicity) ECHCG PRE
[11] = post-emergence, 360 h, 250 g/ha, post-emergence, 15 DAA, visual assessment (100%=total damage, 0%=no damage), read-out: Post-emergence herbicidal activity (percentage phytotoxicity) ALOMY POST
[12] = pre-emergence, 480 h, 250 g/ha, pre-emergence, 20 DAA, visual assessment (100%=total damage, 0%=no damage), read-out: Pre-emergence herbicidal activity (percentage phytotoxicity) ALOMY PRE
[13] = post-emergence, 360 h, POST-emergence, rate 250 g/ha, visual score 15 DAA (100%=total damage, 0%=no damage), read-out: Post-emergence herbicidal activity (percentage phytotoxicity) AVEFA POST
[14] = pre-emergence, 480 h, PRE-emergence, rate 250 g/ha, visual score 20 DAA (100%=total damage, 0%=no damage), read-out: Pre-emergence herbicidal activity (percentage phytotoxicity) AVEFA PRE
[15] = post-emergence, 360 h, POST-emergence, rate 250 g/ha, visual score 15 DAA (100%=total damage, 0%=no damage), read-out: Post-emergence herbicidal activity (percentage phytotoxicity) LOLPE POST
[16] = pre-emergence, 480 h, PRE-emergence, rate 250 g/ha, visual score 20 DAA (100%=total damage, 0%=no damage), read-out: Pre-emergence herbicidal activity (percentage phytotoxicity) LOLPE PRE
[17] = post-emergence, 360 h, POST-emergence, rate 250 g/ha, visual score 15 DAA (100%=total damage, 0%=no damage), read-out: Post-emergence herbicidal activity (percentage phytotoxicity) ECHCG POST
[18] = pre-emergence, 480 h, PRE-emergence, rate 250 g/ha, visual score 20 DAA (100%=total damage, 0%=no damage), read-out: Pre-emergence herbicidal activity (percentage phytotoxicity) ECHCG PRE
[19] = post-emergence, 360 h, POST-emergence, rate 250 g/ha, visual score 15 DAA (100%=total damage, 0%=no damage), read-out: Post-emergence herbicidal activity (percentage phytotoxicity) ALOMY POST
[20] = pre-emergence, 480 h, PRE-emergence, rate 250 g/ha, visual score 20 DAA (100%=total damage, 0%=no damage), read-out: Pre-emergence herbicidal activity (percentage phytotoxicity) ALOMY PRE
[21] = post-emergence, 360 h, Rate 250 g/ha, post-emergence, visual assessment 15 DAA, 100%=total damage, 0%=no damage, read-out: Post-emergence herbicidal activity (percentage phytotoxicity) AVEFA POST
[22] = pre-emergence, 480 h, Rate 250 g/ha, pre-emergence, visual assessment 20 DAA, 100%=total damage, 0%=no damage, read-out: Pre-emergence herbicidal activity (percentage phytotoxicity) AVEFA PRE
[23] = post-emergence, 360 h, Rate 250 g/ha, post-emergence, visual assessment 15 DAA, 100%=total damage, 0%=no damage, read-out: Post-emergence herbicidal activity (percentage phytotoxicity) LOLPE POST
[24] = pre-emergence, 480 h, Rate 250 g/ha, pre-emergence, visual assessment 20 DAA, 100%=total damage, 0%=no damage, read-out: Pre-emergence herbicidal activity (percentage phytotoxicity) LOLPE PRE
[25] = post-emergence, 360 h, Rate 250 g/ha, post-emergence, visual assessment 15 DAA, 100%=total damage, 0%=no damage, read-out: Post-emergence herbicidal activity (percentage phytotoxicity) ECHCG POST
[26] = pre-emergence, 480 h, Rate 250 g/ha, pre-emergence, visual assessment 20 DAA, 100%=total damage, 0%=no damage, read-out: Pre-emergence herbicidal activity (percentage phytotoxicity) ECHCG PRE
[27] = post-emergence, 360 h, Rate 250 g/ha, post-emergence, visual assessment 15 DAA, 100%=total damage, 0%=no damage, read-out: Post-emergence herbicidal activity (percentage phytotoxicity) ALOMY POST
[28] = pre-emergence, 480 h, Rate 250 g/ha, pre-emergence, visual assessment 20 DAA, 100%=total damage, 0%=no damage, read-out: Pre-emergence herbicidal activity (percentage phytotoxicity) ALOMY PRE
[29] = post-emergence, 360 h, Rate 250 g/ha, post-emergence, assessed visually 15 DAA, 100%=total damage, 0%=no damage, read-out: Post-emergence herbicidal activity (percentage phytotoxicity) AVEFA POST
[30] = pre-emergence, 480 h, Rate 250 g/ha, pre-emergence, assessed visually 20 DAA, 100%=total damage, 0%=no damage, read-out: Pre-emergence herbicidal activity (percentage phytotoxicity) AVEFA PRE
[31] = post-emergence, 360 h, Rate 250 g/ha, post-emergence, assessed visually 15 DAA, 100%=total damage, 0%=no damage, read-out: Post-emergence herbicidal activity (percentage phytotoxicity) LOLPE POST
[32] = pre-emergence, 480 h, Rate 250 g/ha, pre-emergence, assessed visually 20 DAA, 100%=total damage, 0%=no damage, read-out: Pre-emergence herbicidal activity (percentage phytotoxicity) LOLPE PRE
[33] = post-emergence, 360 h, Rate 250 g/ha, post-emergence, assessed visually 15 DAA, 100%=total damage, 0%=no damage, read-out: Post-emergence herbicidal activity (percentage phytotoxicity) ECHCG POST
[34] = pre-emergence, 480 h, Rate 250 g/ha, pre-emergence, assessed visually 20 DAA, 100%=total damage, 0%=no damage, read-out: Pre-emergence herbicidal activity (percentage phytotoxicity) ECHCG PRE
[35] = post-emergence, 360 h, Rate 250 g/ha, post-emergence, assessed visually 15 DAA, 100%=total damage, 0%=no damage, read-out: Post-emergence herbicidal activity (percentage phytotoxicity) ALOMY POST
[36] = pre-emergence, 480 h, Rate 250 g/ha, pre-emergence, assessed visually 20 DAA, 100%=total damage, 0%=no damage, read-out: Pre-emergence herbicidal activity (percentage phytotoxicity) ALOMY PRE

Row | SMILES | pest or weed control at 250 g/ha [1, 13] [%] | pest or weed control at 250 g/ha [1, 14] [%] | pest or weed control at 250 g/ha [2, 15] [%] | pest or weed control at 250 g/ha [2, 16] [%] | pest or weed control at 250 g/ha [3, 17] [%] | pest or weed control at 250 g/ha [3, 18] [%] | pest or weed control at 250 g/ha [4, 19] [%] | pest or weed control at 250 g/ha [4, 20] [%] | pest or weed control at 250 g/ha [1, 21] [%] | pest or weed control at 250 g/ha [1, 22] [%] | pest or weed control at 250 g/ha [2, 23] [%] | pest or weed control at 250 g/ha [2, 24] [%] | pest or weed control at 250 g/ha [3, 25] [%] | pest or weed control at 250 g/ha [3, 26] [%] | pest or weed control at 250 g/ha [4, 27] [%] | pest or weed control at 250 g/ha [4, 28] [%] | also measured
1 | Cc1cc(-c2ncc(Cl)cc2F)cc(C)c1C1C(=O)CC(CC(=O)N2CCOCC2)C1=O (centres unmarked) [Compound B93] |  |  |  |  |  |  |  |  |  |  |  |  |  |  |  |  | pest or weed control at 250 g/ha [1, 5]: 100%; pest or weed control at 250 g/ha [1, 6]: 70%; pest or weed control at 250 g/ha [2, 7]: 100%; pest or weed control at 250 g/ha [2, 8]: 90%; pest or weed control at 250 g/ha [3, 9]: 100%; pest or weed control at 250 g/ha [3, 10]: 100%; pest or weed control at 250 g/ha [4, 11]: 100%; pest or weed control at 250 g/ha [4, 12]: 80%
2 | COCCCNC(=O)CC1CC(=O)C(c2c(C)cc(-n3cc(Cl)cn3)cc2C)C1=O (centres unmarked) [Compound B310] | 100 | 80 | 70 | 90 | 100 | 90 | 90 | 90 |  |  |  |  |  |  |  |  | 
3 | Cc1cc(-c2ncc(F)cn2)cc(C)c1C1C(=O)CC(CC(=O)N(C)C)C1=O (centres unmarked) [Compound B279] | 100 | 100 | 100 | 100 | 100 | 100 | 100 | 100 |  |  |  |  |  |  |  |  | 
4 | C=Cc1cc(-c2ncc(F)cc2F)cc(C)c1C1C(=O)CC(CC(=O)NC(C)(C)C)C1=O (centres unmarked) [Compound B382, N-tert-butyl-2-[3-[4-(3,5-difluoro-2-pyridyl)-2-methyl-6-vinyl-phenyl]-2,4-dioxo-cyclopentyl]acetamide] |  |  |  |  |  |  |  |  | 100 | 40 | 100 | 60 | 100 | 60 | 100 | 60 | 
5 | Cc1cc(-c2ncc(Cl)cc2F)cc(C)c1C1C(=O)CC(CC(=O)NCc2ccsc2)C1=O (centres unmarked) [Compound A130] |  |  |  |  |  |  |  |  |  |  |  |  |  |  |  |  | pest or weed control at 250 g/ha [1, 29]: 100%; pest or weed control at 250 g/ha [1, 30]: 90%; pest or weed control at 250 g/ha [2, 31]: 100%; pest or weed control at 250 g/ha [2, 32]: 90%; pest or weed control at 250 g/ha [3, 33]: 100%; pest or weed control at 250 g/ha [3, 34]: 100%; pest or weed control at 250 g/ha [4, 35]: 90%; pest or weed control at 250 g/ha [4, 36]: 70%
6 | CC(C)=CNC(=O)CC1CC(=O)C(c2c(C)cc(-c3ccc(C#N)cn3)cc2C)C1=O (centres unmarked) [Compound B319] | 80 | 0 | 60 | 0 | 100 | 0 | 70 | 0 |  |  |  |  |  |  |  |  | 
7 | C#Cc1cc(-c2ncc(F)cc2F)cc(C)c1C1C(=O)CC(CC(=O)NC(C)(C)C)C1=O (centres unmarked) [Compound B381, N-tert-butyl-2-[3-[4-(3,5-difluoro-2-pyridyl)-2-ethynyl-6-methyl-phenyl]-2,4-dioxo-cyclopentyl]acetamide] |  |  |  |  |  |  |  |  | 100 | 70 | 100 | 90 | 100 | 70 | 100 | 70 | 
8 | CC#Cc1cc(C)c(C2C(=O)CC(CC(=O)N3CCOCC3)C2=O)c(C)c1 (centres unmarked) [Compound B155] |  |  |  |  |  |  |  |  |  |  |  |  |  |  |  |  | pest or weed control at 250 g/ha [1, 5]: 100%; pest or weed control at 250 g/ha [1, 6]: 100%; pest or weed control at 250 g/ha [2, 7]: 100%; pest or weed control at 250 g/ha [2, 8]: 100%; pest or weed control at 250 g/ha [3, 9]: 100%; pest or weed control at 250 g/ha [3, 10]: 100%; pest or weed control at 250 g/ha [4, 11]: 100%; pest or weed control at 250 g/ha [4, 12]: 90%
9 | Cc1cc(C)c(C2C(=O)CC(CC(=O)NCc3cccc(C(F)(F)F)c3)C2=O)c(C)c1 (centres unmarked) [Compound A89] |  |  |  |  |  |  |  |  |  |  |  |  |  |  |  |  | pest or weed control at 250 g/ha [1, 29]: 90%; pest or weed control at 250 g/ha [1, 30]: 60%; pest or weed control at 250 g/ha [2, 31]: 100%; pest or weed control at 250 g/ha [2, 32]: 90%; pest or weed control at 250 g/ha [3, 33]: 100%; pest or weed control at 250 g/ha [3, 34]: 100%; pest or weed control at 250 g/ha [4, 35]: 90%; pest or weed control at 250 g/ha [4, 36]: 90%
10 | C=CCNC(=O)CC1CC(=O)C(c2c(C)cc(-c3ncc(Cl)cn3)cc2C)C1=O (centres unmarked) [Compound B350] |  |  |  |  |  |  |  |  | 100 | 90 | 100 | 100 | 100 | 100 | 100 | 100 | 
